Measurements as given in the RepoRT retention time repository.

Experiment: RP, Thermo Scientific Hypersil GOLD, 200 × 2.1 mm, 1.9 µm, 40 °C, 0.4 mL/min, estimated dead time 1.1 min; A: water + 0.2% formic acid; B: acetonitrile; gradient (min/%B) 0/10 0.5/10 22/100 30/100 30.2/10 35/10
Conditions: stereoisomer not certain

| Structure (SMILES) | LC retention time |
| --- | --- |
| O=c1c(O)c(-c2ccc(O)c(O)c2)oc2cc(O)cc(O)c12 [quercetin] | 7.8 min |
| CC1CCC2(NC1)OC1CC3C4CCC5CC(OC6OC(CO)C(OC7OC(CO)C(O)C(OC8OCC(O)C(O)C8O)C7OC7OC(CO)C(O)C(O)C7O)C(O)C6O)CCC5(C)C4CCC3(C)C1C2C (centres undefined) [tomatin] | 7.55 min |
| COc1ccc(C2CC(=O)c3c(O)cc(O)cc3O2)cc1O (centres undefined) [hesperetin] | 9.3 min |
| O=C(C=Cc1ccc(O)c(O)c1)OCCc1ccccc1 [caffeic acid phenylethyl ester] | 12.2 min |
| O=C(O)c1ccc(O)c(O)c1 [protocatechuic acid] | 2.41 min |
| COc1cc(-c2oc3cc(O)cc(O)c3c(=O)c2O)ccc1O [isorhamnetin] | 9.25 min |
| CC1OC(Oc2c(-c3ccc(O)c(O)c3)oc3cc(O)cc(O)c3c2=O)C(O)C(O)C1O (centres undefined) [quercetin 3-rhamnoside] | 6.02 min |
| CC=C1C(OC2OC(CO)C(O)C(O)C2O)OC=C(C(=O)OC)C1CC(=O)OCCc1ccc(O)c(O)c1 (centres undefined) [oleuropein] | 7.05 min |
| CC1(C(=O)O)CCC2(C)CCC3(C)C(=CC(=O)C4C5(C)CCC(O)C(C)(C)C5CCC43C)C2C1 (stereo not drawn) [18beta-glycyrrhetinic acid] | 16.6 min |
| COc1ccc(C2CC(=O)c3c(O)cc(OC4OC(CO)C(O)C(O)C4OC4OC(C)C(O)C(O)C4O)cc3O2)cc1O (centres undefined) [hesperetin 7-O-neohesperidoside] | 6.61 min |
| CC1CCC2C(C)C3C(CC4C5CC=C6CC(OC7OC(CO)C(OC8OC(C)C(O)C(O)C8O)C(O)C7OC7OC(C)C(O)C(O)C7O)CCC6(C)C5CCC43C)N2C1 (stereo not drawn) [alpha-chaconine] | 7.97 min |
| COc1cc(-c2[o+]c3cc(O)cc(O)c3cc2OC2OC(CO)C(O)C(O)C2O)cc(OC)c1O (centres undefined) [malvidin 3-glucoside] | 3.86 min |
| O=C(CCc1ccc(O)cc1)c1c(O)cc(O)cc1OC1OC(CO)C(O)C(O)C1O (centres undefined) [phloridzin] | 6.77 min |
| CC1OC(OCC2OC(Oc3c(-c4ccc(O)c(O)c4)oc4cc(O)cc(O)c4c3=O)C(O)C(O)C2O)C(O)C(O)C1O (centres undefined) [quercetin 3-rutinoside] | 5.07 min |
| O=C(O)c1cc(O)c(O)c(O)c1 [gallic acid] | 1.6 min |
| COc1cc(CC(CO)C(CO)Cc2ccc(O)c(OC)c2)ccc1O (centres undefined) [secoisolariciresinol] | 6.86 min |
| O=c1ccc2ccc(O)cc2o1 [7-hydroxycoumarin] | 5.43 min |

| Structure (SMILES) | LC retention time |
| --- | --- |
| O=c1c(O)c(-c2ccc(OC3OC(CO)C(O)C(O)C3O)c(O)c2)oc2cc(O)cc(O)c12 (centres undefined) [quercetin 4'-glucoside] | 6.25 min |
| CC1OC(OC2C(Oc3cc(O)c4c(c3)OC(c3ccc(O)cc3)CC4=O)OC(CO)C(O)C2O)C(O)C(O)C1O (centres undefined) [naringenin 7-O-neohesperidoside] | 6.18 min |
| COc1ccc(C2CC(=O)c3c(O)cc(OC4OC(COC5OC(C)C(O)C(O)C5O)C(O)C(O)C4O)cc3O2)cc1O (centres undefined) [hesperetin 7-rutinoside] | 6.39 min |
| O=C1CC(c2ccc(O)cc2)Oc2cc(O)cc(O)c21 (centres undefined) [naringenin] | 8.88 min |
| COc1cc(CC2COC(c3ccc(O)c(OC)c3)C2CO)ccc1O (centres undefined) [lariciresinol] | 7.24 min |
| CC1CCC2(C(=O)O)CCC3(C)C(=CCC4C5(C)CC(O)C(O)C(C)(CO)C5CCC43C)C2C1C (centres undefined) [asiatic acid] | 12.7 min |
| O=c1cc(-c2ccc(O)c(O)c2)oc2cc(O)cc(O)c12 [luteolin] | 7.75 min |
| O=C(C=Cc1ccc(O)c(O)c1)OC1CC(O)(C(=O)O)CC(O)C1O (centres undefined) [chlorogenic acid] | 3.21 min |
| O=c1c(O)c(-c2ccc(O)cc2)oc2cc(O)cc(O)c12 [kaempferol] | 9.01 min |
| CC1CCC2(C(=O)O)CCC3(C)C(=CCC4C5(C)CCC(O)C(C)(C)C5CCC43C)C2C1C (centres undefined) [ursolic acid] | 19.2 min |
| CC1OC(OCC2OC(Oc3c(-c4ccc(O)cc4)oc4cc(O)cc(O)c4c3=O)C(O)C(O)C2O)C(O)C(O)C1O (centres undefined) [kaempferol 3-rutinoside] | 5.64 min |
| C=C(C)C1CCC2(C(=O)O)CCC3(C)C(CCC4C5(C)CCC(O)C(C)(C)C5CCC43C)C12 (centres undefined) [betulinic acid] | 18.8 min |
| CC(C)C1=CC2=CCC3C(C)(C(=O)O)CCCC3(C)C2CC1 (centres undefined) [abietic acid] | 19.3 min |
| OCCc1ccc(O)c(O)c1 [hydroxytyrosol] | 2.46 min |
| O=C(O)/C=C/c1ccc(O)cc1 [p-coumaric acid] | 5.04 min |
| CC1CCC2C(C)C3C(CC4C5CC=C6CC(OC7OC(CO)C(O)C(OC8OC(CO)C(O)C(O)C8O)C7OC7OC(C)C(O)C(O)C7O)CCC6(C)C5CCC43C)N2C1 (stereo not drawn) [alpha-solanine] | 7.91 min |
| O=C(C=Cc1ccc(O)cc1)OC1CC(O)(C(=O)O)CC(O)C1O (centres undefined) [p-coumarlyquinnic acid] | 4.21 min |
